Test results reported in PubChem BioAssay AID743450 (Broad Institute, 2014).
Where “and” joins values, the source holds several entries; their conditions need not be identical. Equal entries are not always repeated. Results filed as inconclusive are left out. Calls of active or inactive are those of the source. The rule behind the calls is not given here.

Experiment: TB CFU imaging, starved microorganism, inhibitor dose response, confirmatory, dry powder (AID 743450)
Conditions: not given
Cn1c(NC(=O)c2ccccc2)nc2ccc(F)cc21 gave an AC90 of 4.72 µM. COc1ccccc1C(=O)Nc1nc2ccccc2n1C showed an AC90 of 5.86 µM. Cn1c(NC(=O)c2ccccc2)nc2c3nccnc3ccc21 gave an AC90 of 1.37 µM. O=C(Nc1nc2ccccc2n1C1CCCCC1)c1ccccc1 gave an AC90 of 8.07 µM. COc1cccc(C(=O)Nc2nc3ccccc3n2C)c1 gave an AC90 of 6.18 µM. In the case of Cn1c(NC(=O)c2ccccc2)nc2c(C#N)cccc21, the AC90 is reported as 5.26 µM. Cn1c(NC(=O)c2cccc(F)c2)nc2ccccc21 showed an AC90 of 7.51 µM. Work on Cn1c(NC(=O)c2ccccc2)nc2ccc3ncccc3c21 yielded an AC90 of 6.35 µM. CCN(CC)CCn1c(NC(=O)c2ccccc2)nc2ccccc21 gave an AC90 of 7.31 µM. Work on Cc1cc(C(=O)Nc2nc3ccccc3n2C)c(C)o1 yielded an AC90 of 9.93 µM. Work on Cn1c(NC(=O)c2ccc(OC(F)(F)F)cc2)nc2ccccc21 yielded an AC90 of 6.61 µM. In the case of Cn1c(NC(=O)c2ccccc2)nc2c(F)cccc21, the AC90 is reported as 10.1 µM. Work on O=C(Nc1nc2ccccc2n1C1CC1)c1ccccc1 yielded an AC90 of 4.84 µM. Cn1c(NC(=O)c2ccc(-c3ccccc3)cc2)nc2ccccc21 gave an AC90 of 6.25 µM. For Cn1c(NC(=O)Cc2ccccc2)nc2ccccc21, the AC90 was 3.85 µM. In the case of CCCCn1c(NC(=O)c2ccccc2)nc2ccccc21, the AC90 is reported as 7.88 µM. Work on O=C(Nc1nc2ccccc2n1Cc1ccccc1)c1ccccc1 yielded an AC90 of 6.74 µM. In the case of COc1ccc(C(=O)Nc2nc3ccccc3n2C)cc1OC, the AC90 is reported as 11.3 µM. With Cn1c(NC(=O)c2cccnc2)nc2ccccc21 the AC90 was 5.75 µM. For Cn1c(NC(=O)c2ccccc2)nc2ccccc21, the AC90 was 4.27 µM and 4.2 µM. Cn1c(NC(=O)c2ccccc2)nc2cc(C(F)(F)F)ccc21 gave an AC90 of 6.01 µM. Work on COc1ccc2c(c1)nc(NC(=O)c1ccccc1)n2C yielded an AC90 of 4.26 µM. For Cn1c(NC(=O)c2ccccc2)nc2ncccc21, the AC90 was 2.23 µM. With Cn1c(NC(=O)c2ccccc2)nc2c3ncccc3ccc21 the AC90 was 1.18 µM. Molecule Cn1c(NC(=O)c2ccc(Cl)cc2)nc2ccccc21 has an AC90 of 12.3 µM. With Cn1c(NC(=O)c2ccccc2F)nc2ccccc21 the AC90 was 4.84 µM. Work on Cn1c(NC(=O)c2ccccn2)nc2ccccc21 yielded an AC90 of 5.17 µM. Cn1c(NC(=O)c2cccc3ccccc23)nc2ccccc21 gave an AC90 of 2.81 µM. Cc1cccc(C(=O)Nc2nc3ccccc3n2C)c1 gave an AC90 of 8.9 µM. With Cn1c(NC(=O)c2cccc(Cl)c2)nc2ccccc21 the AC90 was 5.55 µM. Work on Cn1c(NC(=O)c2ccccc2NC(=O)c2ccccc2)nc2ccccc21 yielded an AC90 of 5.02 µM. Molecule Cn1c(NC(=O)c2ccccc2Cl)nc2ccccc21 has an AC90 of 4.64 µM. Cn1c(NC(=O)c2ccccc2)nc2c3cccnc3ccc21 showed an AC90 of 12 µM. For COc1ccc(C(=O)Nc2nc3ccccc3n2C)cc1, the AC90 was 3.71 µM. Molecule Cn1c(NC(=O)c2ccc3ccccc3c2)nc2ccccc21 has an AC90 of 6.5 µM. Work on Cn1c(NC(=O)c2ccc(F)c(F)c2)nc2ccccc21 yielded an AC90 of 19.9 µM. In the case of Cn1c(NC(=O)c2ccccc2)nc2cc(Cl)ccc21, the AC90 is reported as 6.02 µM. In the case of O=C(Nc1nc2ccccc2n1CCN1CCCCC1)c1ccccc1, the AC90 is reported as 12.3 µM. With Cn1c(NC(=O)c2ccccc2C(F)(F)F)nc2ccccc21 the AC90 was 7.01 µM. For Cc1ccc(C(=O)Nc2nc3ccccc3n2C)cc1, the AC90 was 4.71 µM. With Cn1c(NC(=O)c2cccs2)nc2ccccc21 the AC90 was 4.16 µM and 1.65 µM. Work on CC(C)Oc1ccc(C(=O)Nc2nc3ccccc3n2C)cc1 yielded an AC90 of 6.98 µM. With Cn1c(NC(=O)c2ccccc2)nc2c3ccncc3ccc21 the AC90 was 6.92 µM. For Cn1c(NC(=O)c2ccc(C(C)(C)C)cc2)nc2ccccc21, the AC90 was 6.68 µM. Work on Cn1c(NC(=O)c2ccccc2)nc2cc(F)ccc21 yielded an AC90 of 4.55 µM. With Cn1c(NC(=O)c2ccncc2)nc2ccccc21 the AC90 was 15 µM. Cn1c(NC(=O)c2cccc(OC(F)F)c2)nc2ccccc21 gave an AC90 of 22.3 µM. For COCCn1c(NC(=O)c2ccccc2)nc2ccccc21, the AC90 was 2.23 µM. For CC(C)n1c(NC(=O)c2ccccc2)nc2ccccc21, the AC90 was 6.68 µM. In the case of CN(C(=O)c1ccccc1)c1nc2ccccc2n1C, the AC90 is reported as > 26 µM (inactive). Work on CN(C)c1cccc(C(=O)Nc2nc3ccccc3n2C)c1 yielded an AC90 of 5.34 µM. Molecule Cc1ccc2c(c1)nc(NC(=O)c1ccccc1)n2C has an AC90 of 13.6 µM. Molecule Cn1c(NC(=O)c2ccccc2)nc2cccc(Cl)c21 has an AC90 of 10.2 µM. With Cn1c(NC(=O)c2ccc(F)cc2)nc2ccccc21 the AC90 was 5.03 µM. Work on O=C(Nc1nc2ccccc2[nH]1)c1ccccc1 yielded an AC90 of 12.3 µM. Molecule CCCn1c(NC(=O)c2ccccc2)nc2ccccc21 has an AC90 of 6.02 µM. Molecule Cn1c(NC(=O)c2ccccc2)nc2cc(C#N)ccc21 has an AC90 of 7.91 µM. In the case of O=C(Nc1nc2ccccc2n1-c1ccccc1)c1ccccc1, the AC90 is reported as > 26 µM (inactive). In the case of CCn1c(NC(=O)c2ccccc2)nc2ccccc21, the AC90 is reported as 5.52 µM. With COc1cccc2c1nc(NC(=O)c1ccccc1)n2C the AC90 was 3.66 µM.

Same assay, conditions: at 26 µM (top of the series)
With Cn1c(NC(=O)c2cccc(C(F)(F)F)c2)nc2ccccc21 the activity change, negative = inhibition was -84% (inactive). For CCn1c(NC(=O)c2cnn(Cc3ccccc3)c2)nc2ccccc21, the activity change, negative = inhibition was -74% (inactive). In the case of Cn1c(NC(=O)c2ccccc2)nc2ccc(C#N)cc21, the activity change, negative = inhibition is reported as -66% (inactive). For Cn1c(N)nc2ccccc21, the activity change, negative = inhibition was 3% (inactive). For Cn1c(NC(=O)c2ccccc2)nc2cccnc21, the activity change, negative = inhibition was -100% (inactive). With O=C(Nc1nc2ccccc2n1CCN1CCOCC1)c1ccccc1 the activity change, negative = inhibition was -51% (inactive).
